# Laboratory results from patent publication US20150057246A1, “SILYL-CONTAINING HETEROCYCLIC COMPOUNDS AND METHODS OF USE THEREOF FOR THE TREATMENT OF VIRAL DISEASES” (priority 2012, published 2015).
# Like-named read-outs stand apart in the source and are kept apart here.
# Assays:
# HCV 1a replicon = assay: Cell-based HCV replicon assay (TaqMan), genotype 1a replicon; conditions: HCV genotype 1a replicon cells, replicon RNA by real time PCR, day 3, EC90 = concentration for ΔCT=3.2 over baseline
# Description: (§1) Measurement of inhibition by compounds of the present invention was performed using the HCV replicon system. Several different replicons encoding different HCV genotypes or mutations were used. In addition, potency measurements were made using different formats of the replicon assay, including different ways of measurements and different plating formats. See Jan M. Vrolijk et al., A replicons-based bioassay for the measurement of interferons in patients with chronic hepatitis C, 110 J. VIROLOGICAL METHODS 201 (2003); Steven S. Carroll et al., Inhibition of Hepatitis C Virus RNA Replication by 2′-Modified Nucleoside Analogs, 278(14) J. BIOLOGICAL CHEMISTRY 11979 (2003). However, the underlying principles are common to all of these determinations, and are outlined below.
# (§2) TaqMan®-Based Assay Protocol:
# (§3) Compounds of the present invention were assayed for cell-based anti-HCV activity using the following protocol. Replicon cells were seeded at 5000 cells/well in 96-well collagen I-coated Nunc plates in the presence of the test compound. Various concentrations of test compound, typically in 10 serial 2-fold dilutions, were added to the assay mixture, with the starting concentration ranging from 250 μM to 1 μM. The final concentration of DMSO was 0.5%, fetal bovine serum was 5%, in the assay media. Cells were harvested on day 3 by the addition of 1× cell lysis buffer (Ambion cat #8721). The replicon RNA level was measured using real time PCR (TaqMan® assay). The amplicon was located in 5B. The PCR primers were: 5B.2F, ATGGACAGGCGCCCTGA (SEQ. ID NO. 1); 5B.2R, […] (SEQ. ID NO. 2); the probe sequence was FAM-labeled CACGCCATGCGCTGCGG (SEQ. ID NO. 3). GAPDH RNA was used as endogenous control and was amplified in the same reaction as NS5B (multiplex PCR) using primers and VIC-labeled probe recommended by the manufacturer (PE Applied Biosystem). The real-time […] reactions were run on ABI PRISM 7900HT Sequence Detection System using the following program: 48° C. for 30 minutes, 95° C. for 10 minutes, 40 cycles of 95° C. for 15 sec, 60° C. for 1 minute. The ΔCT values (CT5B-CTGAPDH) were plotted against the concentration of test compound and fitted to the sigmoid dose-response model using XLfit4 (MDL). EC50 was defined as the concentration of inhibitor necessary to achieve ΔCT=1 over the projected baseline; EC90 the concentration necessary to achieve ΔCT=3.2 over the baseline. Alternatively, to quantitate the absolute amount of replicon RNA, a standard curve was established by including serially diluted T7 transcripts of replicon RNA in the Taqman assay. All TaqMan® reagents were from PE Applied Biosystems. Such an assay procedure was described in detail in e.g. Malcolm et al., Antimicrobial Agents and Chemotherapy 50: 1013-1020 (2006).
# (§4) HCV replicon EC50 assay data for various replicons and mutants was calculated for selected compounds of the present invention using this method and is provided in the tables above herein.
# HCV 1b replicon = assay: Cell-based HCV replicon assay (TaqMan), genotype 1b replicon; conditions: HCV genotype 1b replicon cells, replicon RNA by real time PCR, day 3, EC90 = concentration for ΔCT=3.2 over baseline
# Description: as §1, §2, §3, §4
# HCV 1a Y93H replicon = assay: Cell-based HCV replicon assay (TaqMan), 1a Y93H mutant replicon; conditions: EC90 = concentration for ΔCT=3.2 over baseline
# Description: as §1, §2, §3, §4
# HCV 2b replicon = assay: Cell-based HCV replicon assay (TaqMan), genotype 2b replicon; conditions: Hepatitis C virus, 72 h, read-out: 2b EC90, HCV genotype 2b replicon cells, replicon RNA by real time PCR, day 3; EC90 = concentration for ΔCT=3.2 over baseline
# Description: as §1, §2, §3, §4
# [1] = Hepatitis C virus, 72 h, read-out: 1a Y93H EC90, HCV 1a Y93H mutant replicon cells, replicon RNA by real time PCR, day 3
# [2] = read-out: 1a Y93H EC90, HCV 1a Y93H mutant replicon cells, replicon RNA by real time PCR, day 3
SMILES,"EC90 (HCV 1a replicon; Hepatitis C virus, 72 h)","EC90 (HCV 1b replicon; Hepatitis C virus, 72 h)",EC90 (HCV 1a Y93H replicon; [1]),EC90 (HCV 1a replicon),EC90 (HCV 1b replicon),EC90 (HCV 1a Y93H replicon; [2]),EC90 (HCV 2b replicon)
COC(=O)N[C@H](C(=O)N1C[Si](C)(C)C[C@H]1c1ncc(-c2ccc(-c3ccc4c(ccc5nc([C@@H]6CCCN6C(=O)[C@@H](NC(=O)OC)C(C)C)[nH]c54)c3)cc2)[nH]1)C(C)C [Compound 3],0.031 nM,0.006 nM,280 nM,,,,
COC(=O)N[C@H](C(=O)N1C[Si](C)(C)C[C@H]1c1ncc(-c2ccc(-c3ccc4c(ccc5[nH]c([C@@H]6[C@H]7CC[C@H](C7)N6C(=O)[C@@H](NC(=O)OC)C(C)C)nc54)c3)cc2)[nH]1)C(C)C [Compound 4],0.097 nM,0.005 nM,333 nM,,,,
COC(=O)N[C@H](C(=O)N1CCC[C@H]1c1ncc(-c2ccc(-c3ccc4c(ccc5nc([C@@H]6C[Si](C)(C)CN6C(=O)[C@@H](NC(=O)OC)C(C)C)[nH]c54)c3)cc2)[nH]1)C(C)C [Compound 5],0.012 nM,0.006 nM,181 nM,,,,
COC(=O)N[C@H](C(=O)N1C[Si](C)(C)C[C@H]1c1nc2ccc3cc(-c4ccc(-c5cnc([C@@H]6[C@H]7CC[C@H](C7)N6C(=O)[C@@H](NC(=O)OC)C(C)C)[nH]5)cc4)ccc3c2[nH]1)C(C)C [Compound 6],0.17 nM,0.02 nM,404 nM,,,,
COC(=O)N[C@H](C(=O)N1CC(F)(F)C[C@H]1c1ncc(-c2ccc(-c3ccc4c(ccc5nc([C@@H]6C[Si](C)(C)CN6C(=O)[C@@H](NC(=O)OC)C(C)C)[nH]c54)c3)cc2)[nH]1)C(C)C [Compound 7],0.047 nM,0.005 nM,172 nM,,,,
COC(=O)N[C@H](C(=O)N1C[Si](C)(C)C[C@H]1c1ncc(-c2ccc(-c3ccc4c(ccc5nc([C@@H]6CC(F)(F)CN6C(=O)[C@@H](NC(=O)OC)C(C)C)[nH]c54)c3)cc2)[nH]1)C(C)C [Compound 8],0.042 nM,0.02 nM,65 nM,,,,
COC(=O)N[C@H](C(=O)N1CC(F)(F)C[C@H]1c1nc2ccc3cc(-c4ccc5c(ccc6nc([C@@H]7C[Si](C)(C)CN7C(=O)[C@@H](NC(=O)OC)C(C)C)[nH]c65)c4)ccc3c2[nH]1)C(C)C [Compound 9],0.02 nM,0.007 nM,169 nM,,,,
COC(=O)N[C@H](C(=O)N1C[C@H](F)C[C@H]1c1ncc(-c2ccc(-c3ccc4c(ccc5nc([C@@H]6C[Si](C)(C)CN6C(=O)[C@@H](NC(=O)OC)C(C)C)[nH]c54)c3)cc2)[nH]1)C(C)C [Compound 10],0.15 nM,0.009 nM,92 nM,,,,
COC(=O)N[C@H](C(=O)N1C[C@H](O)C[C@H]1c1ncc(-c2ccc(-c3ccc4c(ccc5nc([C@@H]6C[Si](C)(C)CN6C(=O)[C@@H](NC(=O)OC)C(C)C)[nH]c54)c3)cc2)[nH]1)C(C)C [Compound 11],0.26 nM,0.008 nM,152 nM,,,,
COC(=O)N[C@H](C(=O)N1C[Si](C)(C)C[C@H]1c1nc2ccc3cc(-c4ccc(-c5cnc([C@@H]6C[C@H]7C[C@H]7N6C(=O)[C@@H](NC(=O)OC)C(C)C)[nH]5)cc4)ccc3c2[nH]1)C(C)C [Compound 12],,,,0.006 nM,0.001 nM,> 100 nM,
COC(=O)N[C@H](C(=O)N1CCC[C@H]1c1ncc(-c2ccc(-c3ccc4c(ccc5nc([C@@H]6C[Si](C)(C)CN6C(=O)[C@@H](NC(=O)OC)C6CCOCC6)[nH]c54)c3)cc2)[nH]1)C1CCOCC1 [Compound 18],0.023 nM,0.014 nM,> 100 nM,,,,2.8 nM
CC[C@H](C)[C@H](NC(=O)OC)C(=O)N1CCC[C@H]1c1ncc(-c2ccc(-c3ccc4c(ccc5nc([C@@H]6C[Si](C)(C)CN6C(=O)[C@@H](NC(=O)OC)[C@@H](C)CC)[nH]c54)c3)cc2)[nH]1 [Compound 22],0.35 nM,0.03 nM,746 nM,,,,250 nM
COC(=O)N[C@H](C(=O)N1CCC[C@H]1c1ncc(-c2ccc(-c3ccc4c(ccc5nc([C@@H]6C[Si](C)(C)CN6C(=O)[C@@H](NC(=O)OC)C6CCCCC6)[nH]c54)c3)cc2)[nH]1)C(C)C [Compound 67],0.5 nM,0.02 nM,> 1000 nM,,,,129 nM
COC(=O)N[C@@H](CO)C(=O)N1CCC[C@H]1c1ncc(-c2ccc(-c3ccc4c(ccc5nc([C@@H]6C[Si](C)(C)CN6C(=O)[C@@H](NC(=O)OC)C(C)C)[nH]c54)c3)cc2)[nH]1 [Compound 90],0.56 nM,,> 1000 nM,,,,> 1000 nM
COC(=O)N[C@H](C(=O)N1CCC[C@H]1c1nc(Cl)c(-c2ccc(-c3ccc4c(ccc5nc([C@@H]6C[Si](C)(C)CN6C(=O)[C@@H](NC(=O)OC)C(C)C)[nH]c54)c3)cc2)[nH]1)C(C)C [Compound 94],0.19 nM,,935 nM,,,,184 nM
COC(=O)N[C@H](C(=O)N1C[Si](C)(C)C[C@H]1c1nc2ccc3cc(-c4ccc(-c5cnc([C@@H]6C[C@H]7C[C@H]7N6C(=O)[C@@H](NC(=O)OC)C6CCOCC6)[nH]5)cc4)ccc3c2[nH]1)C1CCOCC1 [Compound 99],0.14 nM,,42 nM,,,,3.5 nM
CC(C)(C)OC(=O)N1C[Si](C)(C)C[C@H]1c1nc2ccc3cc(-c4ccc(-c5[nH]c([C@@H]6C[C@H]7C[C@H]7N6C(=O)OC(C)(C)C)nc5Cl)cc4)ccc3c2[nH]1 [Compound 100],> 1000 nM,,> 1000 nM,,,,> 1000 nM
COC(=O)N[C@H](C(=O)N1C[Si](C)(C)C[C@H]1c1nc2ccc3cc(-c4ccc(-c5[nH]c([C@@H]6C[C@H]7C[C@H]7N6C(=O)[C@@H](NC(=O)OC)C6CCOCC6)nc5Cl)cc4)ccc3c2[nH]1)C1CCOCC1 [Compound 103],0.082 nM,,16.1 nM,,,,2.85 nM
CC(C)(C)OC(=O)N1C[Si](C)(C)C[C@H]1c1nc2ccc3cc(-c4ccc(-c5cnc([C@@H]6C[C@H]7C[C@H]7N6C(=O)OC(C)(C)C)[nH]5)cc4)ccc3c2[nH]1 [Compound 104],,,,> 1000 nM,,> 1000 nM,> 1000 nM
COC(=O)N[C@H](C(=O)N1CCC[C@H]1c1ncc(-c2ccc3cc(-c4ccc5c(ccc6nc([C@@H]7C[Si](C)(C)CN7C(=O)[C@@H](NC(=O)OC)C7CCOCC7)[nH]c65)c4)ccc3c2)[nH]1)C1CCOCC1 [Compound 113],0.026 nM,> 1 nM,,,,,97 nM
